Values of other authors, collected in patent publication US20250009787A1, “Nitric Oxide Containing Foam Formulation for Topical Medical Use” (NOxy Health Products, Inc., priority 2023, published 2025).

Columns and labels:
[1] = reported to be toxic at higher concentration
leg abscesses = settings: 200 ppm NO gas, average of 8.1 hours, 14 consecutive nights

Question: With Nitric oxide [NO gas] as the substance, how does the “toxic concentration (exposure)” value [1] read?
Answer: Its value is greater than 200 ppm.

Question: What about the lesion size (leg abscesses) of the same substance?
Answer: Its lesion size is “significantly reduced in size”.
